Source: a melting point compilation (Tetko et al.; mined from patent text by program, amines drawn as free bases though some values may be those of a salt)

SMILES	melting point [°C]
COC(=O)C1CC(=NO)c2c(Cl)cc(Cl)cc2N1 (stereo unspecified)	216 to 217
Cc1oc(C=Cc2ccccc2Cl)nc1CC(=O)O	148 to 149
CCSC1(SCC)C(O)CC2C3CCC4=CC(=O)C=CC4(C)C3(F)C(OC(C)=O)CC21C (stereo unspecified)	181 to 182
COC(=O)C=C1CN=C(c2ccccc2Cl)c2cc(Cl)ccc2N1	154 to 158
CCSC1CCC(=O)N1S(=O)(=O)c1ccccc1 (stereo unspecified)	100 to 113
O=C(OCc1ccccc1)[C@H](CC(=O)N1C[C@H]2CCCC[C@H]2C1)Cc1ccccc1	107 to 108
NC(=O)c1cc(-c2ccnc(Nc3cccc(C(F)(F)F)c3)n2)ccn1	240 to 242
CCN(C)c1ccc2c(c1)CN(c1cccc(Br)c1COC(C)=O)C2=O	97 to 99
Nc1c(Nc2cccc(-c3ccncc3)n2)c(=O)c1=O	> 340
COC(=O)c1cn(C2=CC(C)(C)Oc3ccc(C#N)cc32)c2ccccc12	177 to 180
CC(C)(C)OC(=O)Nc1ccc([N+](=O)[O-])cc1	112 to 114
N#Cc1ccc(N2C(=O)N(CC#CCO)C(CF)(CF)C2=O)cc1C(F)(F)F	131 to 132
CNC(=O)n1sc(Cc2ccccc2)nc1=O	146
O=C1c2cc(Cl)ccc2N(N2CCCCC2)C2=NCCN12	192 to 193
Cc1cc(-c2nc3ccccc3c(=O)n2-c2ccc(I)cc2)cc(C)c1OCCO	101 to 103
OCCOCc1nnc2n1-c1ccc(Cl)cc1C(c1ccccc1)=NC2	162 to 164
O=C(c1cccnc1)c1cccc(NC(=O)c2ccn3c2CSC3c2cccnc2)c1 (stereo unspecified)	160
COc1cc(OC)c2c(=O)[nH]c(-c3ccc(OCCO)c(-c4ccccc4S(C)(=O)=O)n3)nc2c1	92 to 93
N=C(N)c1ccc(N2CCN(c3ccc(SCC(=O)O)cc3)C2=O)cc1	> 275
Cc1ccc(-n2c(-c3ccc(-c4ccc(-c5nc6c7ccccc7c7ccccc7c6n5-c5ccc(C)cc5)cc4)cc3)nc3c4ccccc4c4ccccc4c32)cc1	405

SMILES	melting point [°C]
COc1ccccc1-c1nc(N)c(C#N)nc1-c1ccc(=O)n(C(C)C)c1	223
CC(C)n1c(=O)[nH]c2c(C(N)=O)nc(-c3cccc(O)c3)nc21	338 to 342
O=C(NC(=O)c1cc(F)ccc1Cl)Nc1ccc(OC(F)(F)F)cc1	199
COc1ccc(OC)c(S(=O)(=O)c2ccc(Cl)cc2NC(=O)N[C@@H](Cc2ccc(NC(=O)c3c(Cl)cncc3Cl)cc2)C(=O)O)c1	168
COC(=O)CNc1cccc(Cl)c1	75 to 76
CCOC1CCC2C3CCC4=CC(=O)CCC4=C3C(c3ccc(C=O)cc3)CC12C (stereo unspecified)	149 to 152
CC(=O)NC1CCc2c([nH]c3cc(O)ccc23)C1 (stereo unspecified)	245 to 246
OC(CCN1CC=C(c2ccc(Cl)cc2)CC1)c1cccc2ccccc12 (stereo unspecified)	122 to 123
CC(C)(C)c1ccc(CN(CCOc2cccc(N)c2N)C(=O)C(F)(F)F)cc1	72 to 74
OC(CCN1CC=C(c2ccc(Cl)cc2)CC1)c1ccc(Cl)cc1Cl (stereo unspecified)	96 to 98
O=C(O)c1ccc(Cl)cc1Sc1ccc(F)cc1	204 to 213
CCCn1c(=O)n(C)c(=O)c2[nH]c(-c3cc(S(=O)(=O)NCCNC)ccc3OCC)c(Cl)c21	226
COc1ccccc1N1CCN(CC(C(=O)NC(C)(C)C)c2ccccn2)CC1 (stereo unspecified)	138 to 139
OC(CN1CC=C(c2ccc(Cl)cc2)CC1)c1ccc(Cc2ccc(Cl)cc2)cc1 (stereo unspecified)	149 to 152
CCOC(=O)C1(C(=O)OCC)CCC2(NCCc3cc(OC)c(OC)cc32)C(C2=NCCc3cc(OC)c(OC)cc32)C1 (stereo unspecified)	116 to 118
CC1(C2CCCC2)Cc2cc(OCC(=O)NC(=N)N)c(Cl)c(Cl)c2C1=O (stereo unspecified)	216
N#Cc1c(N2CCc3ccccc3CC2)[nH]c(=S)[nH]c1=O	> 200
CC(C)(C)OC(=O)N1C2CCC1CN(CCCNc1ccc(C#N)cc1)C2	124 to 127
COc1cn2nc(OCCCN3CCC(OC(c4ccccc4)c4ccccc4)CC3)ccc2n1	133 to 135

Other lines, results leading:

melting point [°C]	SMILES
185 to 186	COC(=O)C1=C(C)NC(=O)N(C(=O)Oc2ccc([N+](=O)[O-])cc2)C1c1ccc(F)c(F)c1 (stereo unspecified)
65 to 66	OC(c1ccccn1)c1cc(F)ccc1F (stereo unspecified)
162 to 163	CCOC(=O)c1sc2ccc(O)c(C=Nc3ccc(OC)cc3)c2c1Cl
> 200	Cc1nc(O)c([N+](=O)[O-])c(N2CCc3cncnc3CC2)n1
> 300	O=C1Nc2cc(NC(=O)c3cccn(-c4ccc(F)cc4)c3=O)ccc2/C1=C/c1ccc[nH]1
148 to 149	Fc1c(F)c(Br)c2nsnc2c1Br
195 to 196	CCCCCCCCOc1ccc(C(=O)NNc2nc(NNC(=O)c3ccc(OCCCCCCCC)cc3O)nc(N(CCC)CCC)n2)c(O)c1
240 to 241	Cc1c(-c2cccc(O)c2)sc(C#N)c1-c1ccc(O)cc1
155	CCc1nnc(SCC2=C(C(=O)O)N3C(=O)C(NC(=O)Cc4csc(=O)s4)C3SC2)s1 (stereo unspecified)
183 to 186	COC(=O)c1cc(-c2ccccc2)c(=O)n2c1-c1sccc1S(=O)C2 (stereo unspecified)
66	COC(=O)C1=CC(=O)CCC1c1ccccc1 (racemic)
287 to 289	C[C@@H](n1cnc2cc(N3CCN(c4ccc([N+](=O)[O-])cc4)CC3)ccc2c1=O)[C@](O)(Cn1cncn1)c1ccc(F)cc1F
205 to 206	COc1ccn2nc(-c3ccccc3)c(-c3ccc(=O)n(C(C)C)n3)c2c1Br
97 to 98	CCOC(=O)C1CCN(c2nc(COc3ccc(C=O)cc3OC)c(C)s2)CC1
178 to 180	NNc1cc2c(nn1)CCN(C(=O)c1cccc(Cl)c1)C2
230	CCn1cc(C(=O)O)c(=O)c2cc(F)c(N3CCNC(c4cc(C)cs4)C3)cc21 (stereo unspecified)
127	Cc1cc(C)cc(NC(=N)Nc2ccccc2C(F)(F)F)c1
57	CC(C)(C)C(O)(COc1ccc(Cl)cc1)Cn1cncn1 (stereo unspecified)
135 to 136	COC(=O)c1ccc(Cn2nc(C(C)(C)C)cc2C(C)(C)C)cc1

melting point [°C]	SMILES
182 to 184	COc1nc(C)nc(NC(=O)NS(=O)(=O)c2cccs2)n1
178 to 180	COc1ccc(N2C(=O)C(O)C2c2ccccc2Cl)cc1 (stereo unspecified)
160 to 162	COc1ccc(C[C@@H](NC(=O)OCc2ccccc2)[C@H](O)C(=O)O)cc1
152 to 153	CC(=O)Nc1ccc(CBr)c(C)c1C#N
145	CN(C)c1nc(Br)cnc1N
160 to 162	O=C(N[C@H]1CCCNC1=O)c1cccc(F)c1F
161 to 165	NN=C1c2ccccc2-c2ccc(F)cc21
126 to 127	COCOc1ccc(C=CC(=O)c2c(OC)cc(OC)c(CC=C(C)C)c2O)cc1OC
191 to 193	CNC1=NS(=O)N=C1NCCS (stereo unspecified)
267	O=C1Nc2ccccc2C1(c1ccc(O)cc1)c1ccc(O)cc1
152 to 154	CCCc1cc(-c2nc3c(s2)CCCO3)ccc1O
293 to 296	COc1nc(OC)nc(-n2c(N)nc3cc(Cl)ccc32)n1
190 to 193	CN1CCN(C(=O)CC2c3ccccc3C(=O)N2c2ccc(Cl)cn2)CC1 (stereo unspecified)
125 to 133	CCc1nc2cc(NC(C)=O)c(Cl)cc2n1-c1ccc(CCNC(=O)NS(=O)(=O)c2ccc(C)cc2)cc1
68 to 70	C#CCOc1cc(-c2ncc(C(F)(F)F)cc2F)c(F)cc1Cl
133 to 135	Cc1ccc2cc(NC(=O)c3cccc(CSc4cnccn4)c3)ccc2n1
146 to 149	CCCCn1c(CO)nc2cnc3ccccc3c21
85 to 87	O=c1n(CCCCN2CCN(c3ccccc3)CC2)nc2n1-c1ccccc1OC2
71 to 72	COC1C=C(c2ccc(C#N)cc2)C(OC)O1 (stereo unspecified)

melting point [°C]	SMILES
99 to 100	COC(=O)CCCC(=O)N(CCc1c[nH]c2ccccc12)CC1CC1
241	Cc1ccc(S(=O)(=O)c2ccc(Cl)c(NC(=O)N[C@@H](Cc3ccc(NC(=O)c4c(Cl)cccc4Cl)cc3)C(=O)O)c2)cc1
165 to 167	COc1cc(CBr)c(OC)cc1/C=C/c1cc(OC)c(CBr)cc1OC
164 to 165	CN(Cc1ccccc1)Cc1c(-c2ccc(NC(=O)NO)cc2)sc2c1c(=O)n(-c1ccccc1)c(=O)n2Cc1c(F)cccc1F
60	NC(Cc1ccc2c(c1)CCC2)=NO
137 to 138	C=CCOc1ccc2c(c1)C(=O)NC(C)(C)O2
279	On1nnc2ccc(C3CCCc4cncn43)cc21 (stereo unspecified)
176 to 178	Cc1cc(-n2cnn(Cc3ccc(C(F)(F)F)cc3)c2=O)sc1C(=O)NCc1cccnc1
168 to 170	CCCc1cc(C(=O)NCc2ccccn2)ccc1OC(C(=O)NS(=O)(=O)c1ccc(C(C)C)cc1)c1ccc2c(c1)OCO2 (stereo unspecified)
350 to 353	O=c1c2ccc(Cl)cc2[nH]c2c(O)nn(-c3ccc(O)c(Cl)c3)c(=O)c12
128 to 132	Cc1cccc(-c2ncc(N)c(=O)n2CC(=O)NC(Cc2ccccc2)C(=O)C(F)(F)C(=O)NCC(=O)O)c1 (stereo unspecified)
192	CCOC(=O)C1=C(C)NC(C)=C(C(=O)OCC(F)(F)F)C1c1cccc([N+](=O)[O-])c1 (stereo unspecified)
114 to 115	O=C(Cn1c(-c2cccc(Cl)c2)nc2cccnc21)NCCN1CCCCC1
147 to 148	Cc1oc(-c2ccccc2)nc1CCOc1ccc(Cn2cc(CCC(=O)O)c(-c3ccccc3)c2)cc1
111 to 117	CC(=O)OC(C(Oc1ccc(Cl)cc1)n1cncn1)C(C)(C)CCl (stereo unspecified)
171 to 174	COCCc1nc2c(N)nc3ccccc3c2n1CCOc1ccccc1
232 to 235	CC(C)(C)c1cc(C(=O)Nc2cnc3ccc(Cl)cc3c2-c2ccccc2)cc(C(C)(C)C)c1O
94 to 96	CCOCc1c(C)nc2c3cccc(Cl)c3ccn12
133	CC(C)c1ccc(C(=O)NC(C)c2sccc2Br)cc1 (stereo unspecified)
